≈ marks a conversion by molar mass, not a printed value. Where two headings read alike, the source gives them in different places.
Experiments:
Bacillus subtilis = assay: Static tests to determine MIC and MBC; format: cell-based; settings: for MIC: antibiotic alone
Experimental: (§1) The experiment was carried out with several Gram-negative and Gram-positive bacterial strains with different susceptibilities isolated in the hospital environment.
(§2) Antibacterial pharmaceutical compositions according to the invention were prepared by mixing amoxicillin at different concentrations with carveol at a sub-inhibitory concentration of 0.3 g per liter of solution or excipient (equivalent to 0.3 mg/ml). The minimal concentration of amoxicillin in combination with carveol 0.3 mg/ml that produced a bactericidal effect was determined. In each case, antibiotic activity was determined either with amoxicillin alone, or with carveol alone, or with the composition of the invention.
(§3) The experiment was carried out with several resistant bacterial strains isolated in the hospital environment. The antibiotic used was ampicillin, from the beta-lactam family, which is one of the most widely used antibiotics. An antibiotic pharmaceutical composition according to the invention was prepared by mixing ampicillin at different concentrations with carveol at a sub-inhibitory concentration of 0.3 g per liter of solution or excipient. This pharmaceutical composition of the invention was named Ampi-P, for potentiated ampicillin. In each case, antibiotic activity was determined either with ampicillin alone, or with carveol alone, or with the composition of the invention.
(§4) The experiment was carried out with several resistant bacterial strains isolated in the hospital environment. The antibiotic used was cephazolin, from the cephalosporin family, another class of beta-lactams which are among the most widely used antibiotics. An antibiotic pharmaceutical composition according to the invention was prepared by mixing cephazolin at different concentrations with alpha-ionone and beta-ionone at a sub-inhibitory concentration of 0.3 g per liter of solution or excipient. This pharmaceutical composition of the invention was named Cepha-P, for potentiated cephazolin. In each case, antibiotic activity was determined either with cephazolin alone, or with alpha-ionone or beta-ionone alone, or with the composition of the invention.
as §3, with “polymyxin B,” for “ampicillin,”, “peptide” for “beta-lactam”, “oldest” for “most widely used”, “polymyxin B” for “ampicillin”, “Polymix-P,” for “Ampi-P,”, “polymyxin B.” for “ampicillin.”
as §3, with “chloramphenicol,” for “ampicillin,”, “phenicol” for “beta-lactam”, “oldest” for “most widely used”, “chloramphenicol” for “ampicillin”, “Chloram-P,” for “Ampi-P,”, “chloramphenicol.” for “ampicillin.”
(§5) The experiment was carried out with several resistant bacterial strains isolated in the hospital environment. The antibiotic used was chlortetracycline, one of the oldest antibiotics. An antibiotic pharmaceutical composition according to the invention was prepared by mixing chlortetracycline at different concentrations with carveol at a sub-inhibitory concentration of 0.3 g per liter of solution or excipient.

Escherichia coli = assay: Static tests to determine MIC and MBC; format: cell-based; settings: for MIC: antibiotic alone
Experimental: as §1, §2, §3, §4
as §3, with “polymyxin B,” for “ampicillin,”, “peptide” for “beta-lactam”, “oldest” for “most widely used”, “polymyxin B” for “ampicillin”, “Polymix-P,” for “Ampi-P,”, “polymyxin B.” for “ampicillin.”
as §3, with “chloramphenicol,” for “ampicillin,”, “phenicol” for “beta-lactam”, “oldest” for “most widely used”, “chloramphenicol” for “ampicillin”, “Chloram-P,” for “Ampi-P,”, “chloramphenicol.” for “ampicillin.”
as §5

Salmonella typhimurium = assay: Static tests to determine MIC and MBC; format: cell-based; settings: for MIC: antibiotic alone
Experimental: as §1, §2, §3, §4
as §3, with “polymyxin B,” for “ampicillin,”, “peptide” for “beta-lactam”, “oldest” for “most widely used”, “polymyxin B” for “ampicillin”, “Polymix-P,” for “Ampi-P,”, “polymyxin B.” for “ampicillin.”
as §3, with “chloramphenicol,” for “ampicillin,”, “phenicol” for “beta-lactam”, “oldest” for “most widely used”, “chloramphenicol” for “ampicillin”, “Chloram-P,” for “Ampi-P,”, “chloramphenicol.” for “ampicillin.”
as §5

[1] = system: Staphylococcus epidermidis; assay: Static tests to determine MIC and MBC; format: cell-based; settings: for MIC: antibiotic alone
Experimental: as §1
as §2, with “invention. […]” for “invention.”

Klebsiella pneumoniae = assay: Static tests to determine MBC; format: cell-based; settings: carveol alone, Table 1
Experimental: as §1, §2

Staphylococcus aureus = assay: Static tests to determine MIC and MBC; format: cell-based; settings: for MBC: carveol alone; for MIC: antibiotic alone
Experimental: as §1, §2
as §5, with “excipient. […] In each case, antibiotic activity was determined either with chlortetracycline alone, or with carveol alone, or with the composition of the invention.” for “excipient.”
as §3, with “streptomycin, an important member of” for “ampicillin, from”, “aminoside family” for “beta-lactam family,”, “among” for “one of”, “important” for “widely used”, “streptomycin” for “ampicillin”, “This pharmaceutical composition of the invention was named Ampi-P, for potentiated ampicillin.” left out
as §3, with “erythromycin, an important member of” for “ampicillin, from”, “macrolide family” for “beta-lactam family,”, “among” for “one of”, “important” for “widely used”, “erythromycin” for “ampicillin”, “This pharmaceutical composition of the invention was named Ampi-P, for potentiated ampicillin.” left out

[2] = system: Escherichia coli strains susceptible to 5 μg/ml amoxicillin; format: cell-based
Experimental: Escherichia coli strains susceptible to 5 μg/ml amoxicillin were cultured in the presence of a sub-inhibitory concentration of 3 μg/ml, then seeded into nutrient medium (Muller Hinton) containing increasing concentrations of amoxicillin (4 then 5 then 6 μg/ml . . . ). The same procedure was carried out with amoxicillin potentiated by carvacrol at a concentration two times lower than the MIC of carvacrol alone, namely 500 μg/ml. This experiment was based on the principle that at each subcloning, a mutant resistant to the new amoxicillin concentration would multiply, giving rise to a strain more resistant than the strain from which the subcloning arose.

[3] = system: amoxicillin-resistant Klebsiella pneumoniae; assay: In vivo test in mice experimentally infected by intraperitoneal injection; settings: organs of mice which died during the experiment; amoxicillin alone 10 mg/kg/day by gavage
Experimental: Groups of 10 mice were experimentally infected by intraperitoneal injection of 1,000,000 cells (colony-forming units) of amoxicillin-resistant Klebsiella pneumoniae.
The first group was composed of control mice which were infected and untreated.
The second group was composed of infected mice treated by gavage, 24 h post-infection, with amoxicillin alone at a dose of 10 mg/kg of body weight/day.
The third group was composed of infected mice treated by gavage, 24 h post-infection, with carveol alone at a dose of 120 mg/kg of body weight/day.
The fourth group was composed of infected mice treated by gavage, 24 h post-infection, with the pharmaceutical composition of the invention (AMOX-P) at a dose of 2 mg/kg of body weight/day of amoxicillin and 120 mg/kg of body weight/day of carveol.
The survival rate was measured over time. […] All the other mice died between the second and third day post-infection.

Mycobacterium fleii = assay: Static tests to determine MIC and MBC; format: cell-based; settings: for MIC: antibiotic alone, exponential growth phase
Mycobacterium fortuitum = assay: Static tests to determine MIC and MBC; format: cell-based; settings: Mycolicibacterium fortuitum; for MIC: antibiotic alone, exponential growth phase
[4] = system: bacterial strains isolated in the hospital environment; assay: Static MIC/MBC tests, potentiation over all tested strains; format: cell-based; settings: antibiotic combined with carveol, alpha-ionone or beta-ionone at 0.3 mg/ml
Experimental: as §1, §2
The experiment was carried out with several resistant bacterial strains isolated in the hospital environment. The antibiotic used was ampicillin, from the beta-lactam family, which is one of the most widely used antibiotics. […] In each case, antibiotic activity was determined either with ampicillin alone, or with carveol alone, or with the composition of the invention.
The experiment was carried out with several resistant bacterial strains isolated in the hospital environment. […] In each case, antibiotic activity was determined either with cephazolin alone, or with alpha-ionone or beta-ionone alone, or with the composition of the invention.
The experiment was carried out with several resistant bacterial strains isolated in the hospital environment. […] This pharmaceutical composition of the invention was named Polymix-P, for potentiated polymyxin B. In each case, antibiotic activity was determined either with polymyxin B alone, or with carveol alone, or with the composition of the invention.
The experiment was carried out with several resistant bacterial strains isolated in the hospital environment. […] In each case, antibiotic activity was determined either with chloramphenicol alone, or with carveol alone, or with the composition of the invention. […]

[5] = system: resistant mycobacterial strains isolated in a veterinary environment; assay: Static MIC/MBC tests, potentiation over tested mycobacterial strains; format: cell-based; settings: antibiotic combined with carvacrol or thymol at 0.3 mg/ml
[6] = first substance alone, exponential growth phase
[7] = starting from 3 μg/ml, potentiated: carvacrol 500 μg/ml
[8] = Bacillus subtilis, exponential growth phase, read-out: MIC
[9] = Escherichia coli, exponential growth phase, read-out: MIC
[10] = Salmonella enterica, TYPHIMURIUM, exponential growth phase, read-out: MIC
[11] = Staphylococcus epidermidis, exponential growth phase, read-out: MIC
[12] = Staphylococcus aureus, exponential growth phase

C=C(C)C1CC=C(C)C(O)C1 (mixture of isomers) [Carveol, carveol]
MBC (Bacillus subtilis; Bacillus subtilis, carveol alone, Table 1, read-out: MBC): 2000 µg/mL
MBC (Bacillus subtilis; [6]): 2000 µg/mL
MBC (Escherichia coli; Escherichia coli, carveol alone, Table 1, read-out: MBC): 2000 µg/mL
MBC (Escherichia coli; [6]): 2000 µg/mL
MBC (Salmonella typhimurium; Salmonella enterica, TYPHIMURIUM, carveol alone, Table 1, read-out: MBC): 2000 µg/mL
MBC (Salmonella typhimurium; [6]): 2000 µg/mL
MBC ([1]; Staphylococcus epidermidis, carveol alone, Table 1, read-out: MBC): 2000 µg/mL
MBC [1, 6]: 2000 µg/mL
MBC (Klebsiella pneumoniae): 2000 µg/mL
MBC (Staphylococcus aureus; Staphylococcus aureus, Table 1, read-out: MBC): 2000 µg/mL
MBC (Staphylococcus aureus; exponential growth phase): 2000 µg/mL

CC(=O)/C=C/C1C(C)=CCCC1(C)C (stereo not drawn) [Alpha-ionone, alpha-ionone]
MBC (Bacillus subtilis; [6]): 2000 µg/mL
MBC (Escherichia coli; [6]): 2000 µg/mL
MBC (Salmonella typhimurium; [6]): 2000 µg/mL
MBC [1, 6]: 2000 µg/mL

CC1(C)S[C@@H]2[C@H](NC(=O)[C@H](N)c3ccc(O)cc3)C(=O)N2[C@H]1C(=O)O [Amoxicillin, amoxicillin]
Final conc. (to which resistant mutants were selected) ([2]; 50 μg/ml was the highest concentration in the experiment): 50 µg/mL
No. of subclonings (to reach final conc.) ([2]; starting from 3 μg/ml): 9
Median conc. (to which resistant mutants were selected) [2, 7]: 17 µg/mL
No. of subclonings (to reach median conc.) [2, 7]: 4
Klebsiella pneumoniae loads in kidney, lung and bone marrow [3]: high loads

CC1(C)S[C@@H]2[C@H](NC(=O)[C@H](N)c3ccccc3)C(=O)N2[C@H]1C(=O)O [Ampicillin, ampicillin]
MIC (Bacillus subtilis; [8]): > 50 µg/mL
MIC (Escherichia coli; [9]): > 50 µg/mL
MIC (Salmonella typhimurium; [10]): > 50 µg/mL
MIC [1, 11]: > 50 µg/mL

CC(=O)/C=C/C1=C(C)CCCC1(C)C [Beta-ionone, beta-ionone]
MBC (Bacillus subtilis; [6]): 2000 µg/mL
MBC (Escherichia coli; [6]): 2000 µg/mL
MBC (Salmonella typhimurium; [6]): 2000 µg/mL
MBC [1, 6]: 2000 µg/mL

Cc1ccc(C(C)C)cc1O [Carvacrol, carvacrol]
MBC (Mycobacterium fleii): 1000 µg/mL (≈ 6.66 mM)
MBC (Mycobacterium fortuitum): 1000 µg/mL (≈ 6.66 mM)

Cc1nnc(SCC2=C(C(=O)O)N3C(=O)[C@@H](NC(=O)Cn4cnnn4)[C@H]3SC2)s1 [Cephazolin, cephazolin]
MIC (Bacillus subtilis; exponential growth phase): >50 µg/mL
MIC (Escherichia coli; exponential growth phase): >50 µg/mL
MIC (Salmonella typhimurium; exponential growth phase): >50 µg/mL
MIC ([1]; exponential growth phase): >50 µg/mL
times lower antibiotic concentration producing bactericidal activity versus antibiotic alone [4]: at least ten

O=C(N[C@H](CO)[C@H](O)c1ccc([N+](=O)[O-])cc1)C(Cl)Cl [Chloramphenicol, chloramphenicol]
MIC (Bacillus subtilis; [8]): > 50 µg/mL
MIC (Escherichia coli; [9]): > 50 µg/mL
MIC (Salmonella typhimurium; [10]): > 50 µg/mL
MIC [1, 11]: > 50 µg/mL

CN(C)[C@@H]1C(O)=C(C(N)=O)C(=O)[C@@]2(O)C(O)=C3C(=O)c4c(O)ccc(Cl)c4[C@@](C)(O)[C@H]3C[C@@H]12 [Chlortetracycline, chlortetracycline]
MIC (Bacillus subtilis; [8]): > 50 µg/mL
MIC (Escherichia coli; [9]): > 50 µg/mL
MIC (Salmonella typhimurium; [10]): > 50 µg/mL
MIC (Staphylococcus aureus; [12]): > 50 µg/mL

CC[C@H]1OC(=O)[C@H](C)[C@@H](O[C@H]2C[C@@](C)(OC)[C@@H](O)[C@H](C)O2)[C@H](C)[C@@H](O[C@@H]2O[C@H](C)C[C@H](N(C)C)[C@H]2O)[C@](C)(O)C[C@@H](C)C(=O)[C@H](C)[C@@H](O)[C@]1(C)O [Erythromycin, erythromycin]
MIC (Bacillus subtilis; [8]): > 50 µg/mL
MIC (Escherichia coli; [9]): > 50 µg/mL
MIC (Salmonella typhimurium; [10]): > 50 µg/mL
MIC (Staphylococcus aureus; [12]): > 50 µg/mL
times lower antibiotic concentration producing bactericidal activity versus antibiotic alone [4]: two to five

NNC(=O)c1ccncc1 [Isoniazide, isoniazide]
MIC (Mycobacterium fleii): > 50 µg/mL
times lower antibiotic concentration producing bactericidal activity versus antibiotic alone [5]: at least 25 times
MIC (Mycobacterium fortuitum): > 50 µg/mL

CO[C@H]1/C=C/O[C@@]2(C)Oc3c(C)c(O)c4c(O)c(c(/C=N/N5CCN(C)CC5)c(O)c4c3C2=O)NC(=O)/C(C)=C\C=C\[C@H](C)[C@H](O)[C@@H](C)[C@@H](O)[C@@H](C)[C@H](OC(C)=O)[C@@H]1C [Rifampicin, rifampicin]
MIC (Mycobacterium fleii): > 75 µg/mL
times lower antibiotic concentration producing bactericidal activity versus antibiotic alone [5]: at least 25 times
MIC (Mycobacterium fortuitum): > 75 µg/mL

[H]/N=C(/N)N[C@H]1[C@H](O)[C@@H](O)[C@H](O[C@@H]2O[C@@H](C)[C@](O)(C=O)[C@H]2O[C@@H]2O[C@@H](CO)[C@H](O)[C@@H](O)[C@@H]2NC)[C@@H](N/C(N)=N\[H])[C@@H]1O [Streptomycin, streptomycin]
MIC (Bacillus subtilis; [8]): > 50 µg/mL
MIC (Escherichia coli; [9]): > 50 µg/mL
MIC (Salmonella typhimurium; [10]): > 50 µg/mL
MIC (Staphylococcus aureus; [12]): > 50 µg/mL
times lower antibiotic concentration producing bactericidal activity versus antibiotic alone [4]: at least 10 times

polymyxin B
MIC (Bacillus subtilis; exponential growth phase): >50 µg/mL
MIC (Escherichia coli; exponential growth phase): >50 µg/mL
MIC (Salmonella typhimurium; exponential growth phase): 25 µg/mL
MIC ([1]; exponential growth phase): >50 µg/mL

Source: US20080214518A1, “Pharmaceutical Composition Comprising an Anti-Bacterial Agent and an Active Ingredient Selected From Carveol, Thymol, Eugenol, Borneol and Carvacrol” (priority 2005, published 2008)
